What all share (test): IA-DTB cysteine engagement
Common to all, as to type: binding

In one experiment the target is T1, GNPAT_C54 (Homo sapiens, UniProt O15228).
T1 construct: endogenous in cells; host or cells: 22Rv1
T1 sequence (O15228 1-680): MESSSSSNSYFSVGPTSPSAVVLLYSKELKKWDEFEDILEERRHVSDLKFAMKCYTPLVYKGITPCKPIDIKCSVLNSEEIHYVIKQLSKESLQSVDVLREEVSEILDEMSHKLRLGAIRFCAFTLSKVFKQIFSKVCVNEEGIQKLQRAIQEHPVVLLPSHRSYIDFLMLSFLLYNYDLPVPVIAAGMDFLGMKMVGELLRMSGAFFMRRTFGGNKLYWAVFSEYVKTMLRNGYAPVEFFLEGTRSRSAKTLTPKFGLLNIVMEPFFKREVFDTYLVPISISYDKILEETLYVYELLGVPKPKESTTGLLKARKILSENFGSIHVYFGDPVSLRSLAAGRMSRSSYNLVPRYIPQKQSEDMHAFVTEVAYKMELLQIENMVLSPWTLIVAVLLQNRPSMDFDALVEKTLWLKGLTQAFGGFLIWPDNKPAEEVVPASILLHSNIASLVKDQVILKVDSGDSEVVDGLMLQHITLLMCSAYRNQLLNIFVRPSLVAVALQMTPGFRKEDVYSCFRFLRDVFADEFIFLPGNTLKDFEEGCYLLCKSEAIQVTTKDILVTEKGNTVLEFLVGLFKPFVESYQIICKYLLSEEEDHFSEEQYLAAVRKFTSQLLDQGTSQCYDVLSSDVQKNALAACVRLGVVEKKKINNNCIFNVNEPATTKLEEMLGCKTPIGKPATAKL
Particulars: 22Rv1 cells, relative to DMSO; for % engagement GNPAT_54: 5 μM probe, 1 h (FIG. 5B); for % engagement GNPAT_C54: 20 μM probe, 1 h. In short, it runs like this: (§1)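 Cells were treated in situ with electrophilic probes, then lysed, and the lysates (2 mg/mL protein) were labeled with IA-DTB for 1 h at ambient temperature. After reduction, alkylation and trypsin digestion, labeled peptides were streptavidin-enriched, TMT-labeled and fractionated. Engagement ratios are probe vs DMSO reporter intensities, averaged across replicates.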

A further experiment deals with T2, PNPLA8_C100 (Homo sapiens, UniProt Q9NP80).
T2 construct: endogenous in cells; host or cells: 22Rv1
T2 sequence (Q9NP80 1-782): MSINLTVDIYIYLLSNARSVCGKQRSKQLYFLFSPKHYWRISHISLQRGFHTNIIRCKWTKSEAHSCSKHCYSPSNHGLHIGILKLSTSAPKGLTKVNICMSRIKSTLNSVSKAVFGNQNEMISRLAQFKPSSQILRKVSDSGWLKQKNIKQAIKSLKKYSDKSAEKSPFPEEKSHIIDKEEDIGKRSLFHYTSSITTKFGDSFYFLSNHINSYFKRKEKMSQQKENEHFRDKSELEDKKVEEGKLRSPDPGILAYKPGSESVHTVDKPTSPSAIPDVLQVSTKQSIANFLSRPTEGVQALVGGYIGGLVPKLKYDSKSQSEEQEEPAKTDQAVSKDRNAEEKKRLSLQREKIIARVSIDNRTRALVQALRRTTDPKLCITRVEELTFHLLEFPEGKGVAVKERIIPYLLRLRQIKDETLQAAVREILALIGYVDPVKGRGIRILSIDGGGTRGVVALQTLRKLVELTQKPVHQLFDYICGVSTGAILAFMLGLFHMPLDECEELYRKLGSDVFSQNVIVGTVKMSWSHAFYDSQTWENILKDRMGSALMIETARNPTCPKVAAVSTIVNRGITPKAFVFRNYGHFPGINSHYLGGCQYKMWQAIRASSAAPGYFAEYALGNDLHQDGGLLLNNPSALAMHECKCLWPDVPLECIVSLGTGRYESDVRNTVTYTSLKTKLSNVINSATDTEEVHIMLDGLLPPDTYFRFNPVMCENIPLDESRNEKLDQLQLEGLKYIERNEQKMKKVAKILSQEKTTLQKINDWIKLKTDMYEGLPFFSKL
Particulars: 22Rv1 cells, 20 μM probe, 1 h, relative to DMSO. In short, it runs like this:
as §1

Another experiment addresses T3, COX6B1_C54 (Homo sapiens, UniProt P14854).
T3 construct: endogenous in cells; host or cells: 22Rv1
Particulars: 22Rv1 cells, 20 μM probe, 1 h, relative to DMSO. Summed up:
as §1

These results are taken from patent US20250034216A1, “STEREOSELECTIVE COVALENT LIGANDS FOR ONCOGENIC AND IMMUNOLOGICAL PROTEINS” (The Scripps Research Institute, priority 2021, published 2025).

T3 sequence (P14854 whole entry): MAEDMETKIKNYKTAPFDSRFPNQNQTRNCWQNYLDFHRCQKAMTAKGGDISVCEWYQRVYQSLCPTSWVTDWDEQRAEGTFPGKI

As for `CC#CC(=O)N1C[C@H](c2ccc(Br)cc2)[C@@H]1C(=O)Nc1cccc2cccnc12` [MY-45B, (2R,3S)-3-(4-bromophenyl)-1-(but-2-ynoyl)-N-(quinolin-8-yl)azetidine-2-carboxamide], the “% engagement GNPAT_54” value on GNPAT_C54 was 51.83%.
Regarding `C=CC(=O)N1C[C@H](c2ccc(Br)cc2)[C@@H]1C(=O)Nc1cccc2cccnc12` [MY-1B, (2R,3S)-1-acryloyl-3-(4-bromophenyl)-N-(quinolin-8-yl)azetidine-2-carboxamide], at GNPAT_C54, the “% engagement GNPAT_54” value turned out to be 73.17% and the “% engagement GNPAT_C54” value was found to be 91.5%. In addition, the “% engagement PNPLA8_C100” value on PNPLA8_C100 is 59.5%. On COX6B1_C54, the “% engagement COX6B1_C54” value came out at 56%.
As for `C=CC(=O)N1C[C@H](c2ccc(Br)cc2)[C@H]1C(=O)Nc1cccc2cccnc12` [MY-3B, (2S,3S)-1-acryloyl-3-(4-bromophenyl)-N-(quinolin-8-yl)azetidine-2-carboxamide], the “% engagement GNPAT_C54” value at GNPAT_C54 is reported as 77.5%. Also, the “% engagement PNPLA8_C100” value at PNPLA8_C100 is on record as 70.5%. Further, at COX6B1_C54, the “% engagement COX6B1_C54” value is given as 36.5%.
With `C=CC(=O)N1C[C@H](c2ccc(Br)cc2)[C@H]1C(=O)Nc1cccc2cccnc12` [MY-3A, (2S,3S)-1-acryloyl-3-(4-bromophenyl)-N-(quinolin-8-yl)azetidine-2-carboxamide], on GNPAT_C54, the “% engagement GNPAT_C54” value was 54.25%. For the same compound, the “% engagement PNPLA8_C100” value at PNPLA8_C100 is 48%. The “% engagement COX6B1_C54” value at COX6B1_C54 was 33.5%.
In the case of `C=CC(=O)N1C[C@@H](c2ccc(Br)cc2)[C@H]1C(=O)Nc1cccc2cccnc12` [MY-1A, (2S,3R)-1-acryloyl-3-(4-bromophenyl)-N-(quinolin-8-yl)azetidine-2-carboxamide], the “% engagement GNPAT_C54” value on GNPAT_C54 was determined as 88.5%. Besides, the “% engagement PNPLA8_C100” value at PNPLA8_C100 amounted to 67%. In addition, the “% engagement COX6B1_C54” value at COX6B1_C54 stood at 66.5%.
